Measured values published in patent publication US20030003508A1 (priority 1999, published 2003).

Tested on: R. pulicis
Format: cell-based, Rickettsia pulicis

## CC[C@H]1OC(=O)[C@H](C)[C@@H](O[C@H]2C[C@@](C)(OC)[C@@H](O)[C@H](C)O2)[C@H](C)[C@@H](O[C@@H]2O[C@H](C)C[C@H](N(C)C)[C@H]2O)[C@](C)(O)C[C@@H](C)C(=O)[C@H](C)[C@@H](O)[C@]1(C)O [Erythromycin]
  resistance/sensitivity of the isolate to the antibiotic: resistant
